The record followed here is patent publication US20200038383A1, “IMMEDIATE-RELEASE ABUSE DETERRENT CO[…] MEDICAMENTS FOR TREATING PAIN, ADD, ADHD AND OTHER SYNDROMES OR DISORDERS” (KEMPHARM, INC., priority 2016, published 2020).

Where no end group is shown, it is not given here.

Data set [1] is described as follows: Hydrolysis to hydrocodone in 1 N HCl. To be noted: 1 hour.
Data set [2] can be described thus: Chemical stability (hydrolysis) of hydrocodone conjugates in water. The format is physicochemical. To be noted: one hour. As to the method: Exemplary conjugates of hydrocodone of the present technology and control test conjugates not of the present technology were tested for chemical stability under conditions similar to what a potential drug abuser may use to “extract” the active portion of the molecule, for example dissolved in water, hydrochloric acid or sodium bicarbonate either at ambient temperature or 100° C.

Data set [3] can be described thus: Oral PK of hydrocodone conjugates in rats (plasma hydrocodone, hydromorphone, intact conjugate by LC-MS/MS).
Data set [4] is described as follows: Tamper resistance study (extraction methods, HPLC). The data set is classed as physicochemical. From the text: Certain prodrug conjugates of the present technology were exposed to various commonly applied “extraction methods” to test for hydrolysis and/or decomposition of the prodrug.
A short description of data set [5]: Oral dose escalation study in rats. To be noted: oral solutions, escalating dosages.
A further data set is described as follows: Hydrolysis in 5% NaHCO3. The format is physicochemical. To be noted: one hour.
The nature of data set [6]: Water solubility / feasibility of intravenous administration.
Data set [7] is described as follows: Intranasal PK of hydrocodone conjugates in rats. To be noted: equivalent to 2 mg/kg hydrocodone freebase.
A short description of a further data set: Oral PK in dogs. To be noted: equivalent to 2 mg/kg freebase hydrocodone.
Where [8] appears, read: ambient temperature (about 20° C.).
[9] abbreviates: equivalent to 2 mg/kg hydrocodone freebase.
Setting [10] is: equivalent to 2 mg/kg freebase hydrocodone.

On to “2-aminobenzoate-hydrocodone [Compound 2-Abz-HC]”, for which the “%-release in 1 N HCl” value in data set [1] (100° C. oil bath) is given as 16%. Moreover, the “%-release in 1 N HCl” value in data set [1] (ambient (~20° C.)) amounted to 0%. In addition, the “amount of conjugate hydrolyzed in water” value in data set [2] (100° C. oil bath) came out at 0%. The “amount of conjugate hydrolyzed in water” value in data set [2] (setting [8]) is listed as 0%. Further, in data set [3] (setting [9]), the “hydrocodone AUC, lower than Hydrocodone.BT” value is recorded as “approximately 35%”; the “hydrocodone Cmax, lower than Hydrocodone.BT” value was around 60%; the “hydrocodone Tmax compared with Hydrocodone.BT” value is given as “approximately four times longer”; the “hydromorphone AUC, lower than Hydrocodone.BT” value is listed as “approximately 25%”. Moreover, in data set [3] (setting [9]), the “hydromorphone Cmax, lower than Hydrocodone.BT” value was around 50%.
On to `CC(=O)Oc1ccccc1C(=O)OC1=CCC2C3Cc4ccc(OC(=O)c5ccccc5OC(C)=O)c5c4C2(CCN3C)C1O5` (stereo not drawn) [3,6-di-aspirin-HM, 3,6,-di-aspirin-hydromorphone], for which, in data set [4], the “stability under commonly applied extraction methods” value was “chemically stable”. The “Release of hydromorphone (as %-AUC by HPLC)” value (“Release … (as %-AUC by HPLC)” for short) worked out at 0% in data set [4] (1 N HCl, ambient temperature, 30 min.); 0% in data set [4] (1 N HCl, ambient temperature, 60 min.); 1% in data set [4] (1 N NaOH, ambient temperature, 30 min.); 1% in data set [4] (1 N NaOH, ambient temperature, 60 min.); 1% in data set [4] (4 N NaOH, ambient temperature, 30 min.); 6% in data set [4] (4 N NaOH, ambient temperature, 60 min.). Also, the “Release … (as %-AUC by HPLC)” value was determined as 0% in [4] (5% Acetic acid, ambient temperature, 30 min.); 0% in data set [4] (5% Acetic acid, ambient temperature, 60 min.); 0% in data set [4] (Glacial acetic acid, ambient temperature, 30 min.); 0% in data set [4] (Glacial acetic acid, ambient temperature, 60 min.); 0% in data set [4] (Sat. NaHCO3, ambient temperature, 30 min.); 0% in [4] (Sat. NaHCO3, ambient temperature, 60 min.). Moreover, the “Release … (as %-AUC by HPLC)” value in data set [4] (Water, ambient temperature, 30 min.) was determined as 0%; in [4] (Water, ambient temperature, 60 min.), 0%. In addition, in data set [5], the “exposure (AUC) to hydromorphone at doses above the therapeutic level” value is recorded as “reached a plateau”.
Take `COc1ccc(C(=O)OC2=CC[C@H]3[C@H]4Cc5ccc(OC)c6c5[C@@]3(CCN4C)C2O6)cc1O` (stereo partly drawn) [3-OH-4-MeO-Bz-HC]: the “%-release in 5% NaHCO3” value in “Hydrolysis in 5% NaHCO3” (100° C. oil bath) was 36%; in “Hydrolysis in 5% NaHCO3” (ambient (~20° C.)) it was 0%. In addition, in data set [6], the “solubility in water (intravenous administration at oral equivalent doses)” value (shortened to “solubility in water”) is recorded as “hydrophobic”. In addition, the entries for the “%-release in 1 N HCl” value in data set [1] (100° C. oil bath) and in [1] (ambient (~20° C.)) were 35% and 0%, respectively.
Turning to `COc1ccc2c3c1OC1C(OC(=O)CCCCC(=O)O)=CC[C@H]4[C@@H](C2)N(C)CC[C@]314` (stereo partly drawn) [Adipate-HC], the “%-release in 5% NaHCO3” value in “Hydrolysis in 5% NaHCO3” (100° C. oil bath) amounted to 100%. In “Hydrolysis in 5% NaHCO3” (ambient (~20° C.)), the “%-release in 5% NaHCO3” value came to 3%. Also, the “solubility in water” value in [6] was “water soluble”. The “%-release in 1 N HCl” value in [1] (100° C. oil bath) is given as 100%. In addition, the “%-release in 1 N HCl” value in [1] (ambient (~20° C.)) is reported as 13%. Also, in data set [7], the “AUC for hydromorphone released from Adipate-HC, higher than Bz-HC (sentence on hydrocodone plasma concentrations, FIG. 3)” value is “approximately 280%”; the “Cmax for hydromorphone released from Adipate-HC, higher than Bz-HC (sentence on hydrocodone plasma concentrations, FIG. 3)” value is reported as around 60%; the “hydromorphone AUC, higher than Bz-HC (FIG. 4)” value is “approximately 750%”; the “hydromorphone Cmax, higher than Bz-HC (FIG. 4)” value was around 660%.
In the case of `COc1ccc2c3c1OC1C(OC(=O)c4ccccc4)=CCC4C(C2)N(C)CCC314` (stereo not drawn) [Bz-HC, benzhydrocodone], the “AUC for intact Bz-HC as % of the AUC for hydrocodone” value (in “Oral PK in dogs”; in data set [3] (setting [10])) was “approximately 10%” throughout. In addition, in data set [6], the “solubility in water” value is reported as “hydrophobic”. For the same compound, the “water solubility (or solubility in PBS)” value in data set [6] (0.30 mg/kg close to the maximum intravenous dose in rats) is “poor”. The “maximum plasma concentrations of hydromorphone versus dose” value in [3] (doses above 2.00 mg/kg) was “did not significantly change”. Moreover, the “exposures (AUC) to hydrocodone and hydromorphone versus dose” value in data set [3] (doses between 0.25 and 4.00 mg/kg) is “fairly linear”. Besides, the “AUC for intact Bz-HC as % of the AUC for hydromorphone” value in data set [3] (setting [10]) was around 3%. In addition, the “hydrocodone Cmax compared with Hydrocodone.BT” value in [3] (setting [9]) is “approximately equal”.
On to `COc1ccc(C(=O)OC2=CC[C@H]3[C@H]4Cc5ccc(OC)c6c5[C@@]3(CCN4C)C2O6)cc1` (stereo partly drawn) [Compound 4-MeO-Bz-HC], for which the “solubility in water” value in data set [6] was “hydrophobic”. For the same compound, the “amount of conjugate hydrolyzed in water” value in [2] (100° C. oil bath) and in data set [2] (setting [8]) was 0% in each case.
With `COc1ccc2c3c1OC1C(OC(=O)COCC(=O)O)=CC[C@H]4[C@@H](C2)N(C)CC[C@]314` (stereo partly drawn) [Diglycolate-HC, reference compound], the “solubility in water” value in data set [6] was “water soluble”.
Same read-out and setting: to `COc1ccc2c3c1OC1C(OC(=O)c4ccc5c(c4)OCO5)=CC[C@H]4[C@@H](C2)N(C)CC[C@]314` (stereo partly drawn) [Piperonylate-HC] belongs “hydrophobic”.
As to “Tyr-Tyr-Phe-Phe-Ile-Hydrocodone (YYFFI-hydrocodone) [YYFFI-HC]”, the “%-release in 5% NaHCO3” value in the data set “Hydrolysis in 5% NaHCO3” (100° C. oil bath) was found to be 70%; in the data set “Hydrolysis in 5% NaHCO3” (ambient (~20° C.)) it was 0%.
